Measured values: patent publication US10758466B2, “Powder-based cosmetic compositions containing pelargonic acid esters” (Novamont S.p.A., priority 2015, dated 2020)

Experiments:
[1] = Pigments dispersion: wet point and flow point of ester oil; format: physicochemical; details: for Fp: amount of ester oil needed to reach the flow point; for Fp / Wp: grams per 100 g of pigment; for Wp: amount of ester oil needed to reach the wet point
Excerpt: Black Iron Oxide particles (CI77499, commercially available as YPC335200 from Yipin) were dispersed in each of the ester oils of the present invention and in ester oil commonly used as cosmetic ingredients. Each sample of powder particles was wetted by the dropwise addition of one ester oil and then vigorously blended using a spatula until the wet point and the flow point were reached.
The wet point is defined as the minimum volume of dispersant solution to produce a soft coherent mass; the further minimum addition of dispersant solution to produce flow or falling off of the homogeneous mass from the vertical blade of a horizontally held spatula determines the flow point.
The amounts of dispersant solution (i.e. ester oil) needed to reach the wet point (Wp) and the flow point (Fp) were recorded and reported in the table below, expressed in grams per 100 g of pigment.

[2] = UV filters dispersion: dispersibility of solid UV filter in ester oils; format: physicochemical; design: key: D=homogeneous dispersion; S=sediment deposit; details: 25° C.; for Filters dispersion t0 1%: 1% TiO2, storage 0 hours; for Filters dispersion t24 1%: 1% TiO2, storage 24 hours; for Filters dispersion t0 10%: 10% TiO2, storage 0 hours; for Filters dispersion t24 10%: 10% TiO2, storage 24 hours
Procedure: The dispersibility of a solid UV filter in different ester oils was tested using Titania (TiO2, commercially available as Titanio Biossido Anatasio from A.C.E.F.). Various ratios of solute/solvent (1% and 10% TiO2) were prepared under stiffing at 70° C. for 30 minutes. The dispersions were then observed after a storage period of 0 hours (t0) and 24 hours (t24) at ambient temperature (25° C.) to check for the formation of any sediment deposit. Results for each ester are shown in the table below (D=homogeneous dispersion; S=sediment deposit).

Compound	Fp [1]	Wp [1]	Filters dispersion t0 1% [2]	Filters dispersion t24 1% [2]	Filters dispersion t0 10% [2]	Filters dispersion t24 10% [2]	less solvent required on the final composition ([1]; from Fp close to Wp, compared with commonly used ester oils)
CCCCCCCCC(=O)OCC(C)(C)COC(=O)CCCCCCCC [Neopentyl glycol dipelargonate]	166.00 g	61.00 g	D	S/D	D	S/D	–
CCCCCCCCC(=O)OCC(COC(=O)CCCCCCCC)OC(=O)CCCCCCCC [Glycerol tripelargonate]	100.00 g	60.00 g	D	D	D	S/D	about 30%
CC(C)CCCCCCOC(=O)CCCCCC(C)C [Isononyl Isononanoate, reference compound]	145.00 g	50.00 g	D	S	D	S	–
CCCCCCCCC(=O)OCC(COC(=O)CCCCCCCC)(COC(=O)CCCCCCCC)COC(=O)CCCCCCCC [Pentaerythritol tetrapelargonate]	132.00 g	62.00 g	D	D	D	D	–
